Experimental findings from a melting point compilation (Tetko et al.; mined from patent text by program, amines drawn as free bases though some values may be those of a salt) are described below.

Consider `O=c1cc(Nc2ccc3c(c2)CCC3)[nH]c(=S)[nH]1`, for which the melting point (in general, the temperature of the solid-liquid transition) lay in the range of 269 to 272 °C.
Compound `CCOC(=O)C=Cc1ccc(OC(C)c2nc(-c3ccccc3)oc2C)c(OC)c1` (stereo not drawn) came in with a melting point of 121 to 122 °C.
As for `CCCCCCCCC(SCCCCCC)C(=O)Nc1c(SC)ccc2ncccc12` (stereo not drawn), the figure is 91 to 92 °C; as for `CCOC(=O)C1=C(C)N=C(SCc2ccc(OC)cc2)N(C(=O)OC(C)C)C1c1cccc(Cl)c1Cl` (stereo not drawn), 97 to 99 °C.
As for `CN(C)C=C(C(=O)C(=O)c1ccccc1)c1ccc(C(=O)O)cc1`, the figure is 208 to 209 °C.
Under `Cc1cc(C2=C(c3ccc(S(C)(=O)=O)cc3)C(C)(C)OC2=O)ccc1-c1cscn1` stands 80.3 °C; under `C#Cc1ccc(I)c(Oc2cnc(N)nc2N)c1`, 156 to 159 °C; under `CN1CCN(C2CC3C4CCC5CC(O)C(N6CCC(=O)CC6)CC5(C)C4CCC3(C)C2O)CC1` (stereo not drawn), 225 to 229 °C.
Turning to `C=C(C)COc1ccc(F)cc1CN(CC)c1ccc(C(=O)O)nn1`, the melting point fell in the range of 121 to 122 °C.
`CN(C)C=C1Cc2cc(Cl)ccc2C1=O`: the melting point lay in the range of 148 to 150 °C.
As to `COc1ccc(C2CCC(=O)Nc3ccccc3C2=O)cc1` (stereo not drawn), the melting point is 244 to 245 °C.
For the compound `O=C(CN1CCC(Cc2ccccc2)CC1)Nc1ccc2cn[nH]c2c1`, the melting point lay in the range of 165 to 169 °C.
Under `COc1ccc2onc(Nc3ccncc3)c2c1` stands 248 to 251 °C; under `N#Cc1cc(C(=O)NNC(=O)c2occ(-c3ccncc3)c2-c2ccccc2)ccc1O`, 179 to 181 °C.
In turn, `CCCCOCCOc1ccc(-c2ccc3c(c2)C=C(C(=O)Nc2ccc(SCc4n[nH]c(=O)n4CCC)cc2)CCN3CC(C)C)cc1` returned a melting point of 98 to 101 °C.
The compound `CN(C)C12CN3CN(CN(C3)C1)C2` gave a melting point of 110 to 111 °C.
Take `O=C(Nc1ccccc1)C12CC3CC(CC(C3)C1)C2`: the melting point was in the range of 196 to 199 °C.
`COCC1(O)CCN(c2c(F)cc([N+](=O)[O-])cc2F)CC1` showed a melting point of 84 to 86 °C.
As for `COCCOc1ccc(CCCOc2nn(C)cc2CC(=O)O)c(Oc2ncc(C(F)(F)F)cc2Cl)c1`, the figure is 127 to 129 °C; as for `CN(C)C(=O)Cc1ccc2c(c1)sc1nc(=O)cc(-c3ccccc3)n12`, 238 to 240 °C.
In the case of `O=S(=O)(Nc1cc(C(F)(F)F)ccc1Oc1ccccc1CO)c1cc(C(F)(F)F)cc(C(F)(F)F)c1`, the melting point is 123 to 125 °C.
`NCCCNc1nccc(NC(N)=NCC(F)(F)F)n1` showed a melting point of 159 °C.
`C=C1C(=O)c2ccccc2OC1c1ccc(Cl)cc1Cl` (stereo not drawn) had a melting point of 86 to 87 °C.
Under `NCCC1(O)c2ccccc2CCc2ccccc21` stands 113 to 114 °C; under `CC(C)(C)OC(=O)N[C@H](c1ccc(Cl)cc1)[C@H](c1ccc(Cl)cc1)[N+](=O)[O-]`, 172 to 174 °C; under `CC[C@@H]1C(=O)N(Cc2ccc(OC)cc2OC)[C@H]1C(=O)O` (relative stereo), 122 to 123 °C.
As for `COc1cc2c(=O)n(CCN(C)C)c3c(cnc4cccc([N+](=O)[O-])c43)c2cc1OC`, the figure is 194 to 195 °C; as for `Cc1c(N)c(=O)n2c3c(cc(C(O)(C(F)(F)F)C(F)(F)F)cc13)CC2`, 292 to 293 °C.
Under `NC1=NC=C(c2ccc(C(F)(F)F)cc2)c2ccccc2C1` stands 167 to 170 °C.
Compound `COC(=O)c1ccc2cc(OCC(=O)O)ccc2c1` had a melting point of over 285 °C.
As for `Nc1ccc(C(O)C(COc2ccccc2)N2CCC(Cc3ccccc3)CC2)cc1` (stereo not drawn), the melting point lay within 146 to 147 °C.
For the compound `COc1ccc(C(=O)NNC(=O)c2occ(-c3ccccc3)c2-c2ccccc2)cc1NS(C)(=O)=O`, the melting point fell in the range of 180 to 182 °C.
As for `CN(C)CCn1c(=O)c2cccc([N+](=O)[O-])c2c2cnc3cc4c(cc3c21)OCO4`, the figure is 96 to 97 °C.
`CCNc1cc(N2CCN(C(=O)OC(C)(C)C)CC2)c(F)cc1[N+](=O)[O-]` displayed a melting point of 129 to 131 °C.
Under `CC(C)(C)OC(=O)N1CCC[C@H]1COc1cccc2c1ccn2S(=O)(=O)c1ccccc1` stands 48 to 50 °C; under `CCOC(=O)CNC(=O)c1cccc(Cl)c1`, 70 to 72 °C.
As for `Cc1nc2cc(C(C)(C)C)c(O)cc2o1`, the figure is 264 to 266 °C; as for `CCOC(=O)C(=O)C(C#N)c1ccc(Br)cc1` (stereo not drawn), 146 °C.
`CNC(=S)NCCSCc1nc2ccccc2[nH]1` gave a melting point of 157 to 159 °C.
`CCc1cc2oc(=O)c([N+](=O)[O-])c(O)c2cc1CC` gave a melting point of 115 to 117 °C.
With `NC(=O)c1nsc(N)c1C(N)=O`, the melting point turned out to be 205 °C.
Under `Cc1ccc(S(=O)(=O)N2CCC(c3ccc4c(c3)C(=O)CCCC4)CC2)cc1` stands 165 to 169 °C; under `C=CC(=O)N1CCSc2ccc(OC)cc2C1`, 79 to 81 °C.
Consider `CCOC(=O)c1cc2c(OCc3ccccc3)c(Cc3ccccc3)ccc2[nH]1`, for which the melting point is 129 to 131 °C.
Under `CCOC(=O)C=C1CCC(n2nc(-c3c(-c4ccccc4)nn4ccccc34)ccc2=O)CC1` (stereo not drawn) stands 166 to 168 °C.
Under `CC(=O)C1(C)CCCS1(=O)=O` (stereo not drawn) stands 47 to 48 °C; under `CCOC(=O)c1cn(CC)c2cc(N3CCN(C)CC3)ncc2c1=O`, 176 to 177 °C; under `CN(C(=O)C1CCC1)c1cccc(-c2ccnc3c(C(=O)c4ccccc4)cnn23)c1`, 168 to 170 °C.
As for `CC(=O)NC(Cc1c[nH]c2ccccc12)C(=O)NCc1cc(C(F)(F)F)cc(C(F)(F)F)c1` (stereo not drawn), the figure is 171 to 173 °C; as for `Cc1oc(-c2ccccc2)nc1CCOc1ccc(CCCC=C2OC(=O)NC2=O)cc1`, 152 to 153 °C; as for `CC1=C(C#N)C(c2cccc3nnc(-c4ccccc4)cc23)C(C(=O)OC(C)C)=C(C)N1` (stereo not drawn), 200 to 202 °C.
Consider `C=CCn1cnc2c1c(=O)n(CCCCC(C)O)c(=O)n2C` (stereo not drawn), for which the melting point turned out to be 71 °C.
`O=C/C=C/c1c(Cl)cc(Cl)cc1OCc1ccccc1` displayed a melting point of 109 to 112 °C.
On to `COCn1c(-c2nccs2)cc2cccc(NS(=O)(=O)c3cccs3)c21`, for which the melting point lay in the range of 95 to 97 °C.
Under `O=[N+]([O-])c1cccc(CO)c1Cl` stands 69 to 70 °C.
The compound `CCCCCCCCCCc1nnnn1CC(=O)Nc1c(C(C)C)cccc1C(C)C` gave a melting point of 71 to 73 °C.
As for `Cc1nccn2c(-c3ccnc(NCC(C)(C)CO)n3)c(-c3ccc(F)cc3F)nc12`, the figure is 174 °C; as for `Cc1cc(-c2nc3cccnn3c2-c2ccnc(NC(=O)c3cncc(Cl)c3)c2)ccc1F`, 252 to 254 °C; as for `COc1ccc(-c2nc3cc(F)ccc3s2)cc1OC(=O)N1CCOCC1`, 170 °C.
`Clc1ccc2ncsc2c1Cl` yielded a melting point of 180 to 198 °C.
As for `COC(=O)C1C(CC(C)C)C(C(=O)OC)C(O)(C(F)(F)F)OC1(O)C(F)(F)F` (stereo not drawn), the figure is 67 to 73 °C; as for `O=C(c1ccccc1)C(O)c1ccc(Cl)c(Cl)c1` (stereo not drawn), 204 to 209 °C.
Take `N#Cc1ccc(NC(=O)c2cc3cccc(S(=O)(=O)c4ccccc4)c3[nH]2)c(-c2nnn[nH]2)c1`: the melting point was in the range of 293 to 295 °C.
